The values that follow come from PubChem BioAssay (NCI).

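Cultured in 96-well plates, cells were exposed to test compound for 48 hours across five concentrations. Here, GI50 denotes the concentration required for 50% inhibition of growth. TGI is the concentration that stops growth completely.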

Assay in all cases: DTP human tumour cell line panel, 48 h
Experiment [1] relates to DU-145 prostate.
Experiment [2] deals with SF-295 CNS.
Experiment [3] concerns RXF 393 renal.
Experiment [4] concerns MOLT-4 leukemia.
For experiment [5], the system named is SK-MEL-28 melanoma.
In experiment [6] the test system is SF-539 CNS.
Experiment [7] deals with OVCAR-5 ovarian.
For experiment [8], the system named is OVCAR-8 ovarian.
Experiment [9] relates to MDA-MB-435.
The subject of experiment [10] is KM12 colon.

Take `O=c1c2cc(I)ccc2nc(SCc2n[nH]c(=S)o2)n1Cc1ccccc1`: the TGI turned out to be 31.1 µM in experiment [1]; 40 µM in experiment [2]; 10.9 µM in [3]; 65.3 µM in experiment [4]; 32.3 µM in experiment [5]; 30.3 µM in experiment [6]. Moreover, the concentration for total growth inhibition (TGI) in experiment [7] stood at 52.4 µM; in experiment [8], 40.4 µM; in experiment [9] it was 44.4 µM; in experiment [10] it was 40.4 µM.

`COc1cc(-c2n/c(=C\c3c(O)[nH]c4cc(Cl)ccc34)cc3c2=Nc2ccccc2-3)cc(OC)c1OC`: the GI50 is 2.57 µM in [1]; 2.17 µM in [2]; 2.37 µM in [3]; 2.72 µM in experiment [4]; 4.05 µM in experiment [5]; 11.2 µM in [6]. In addition, the GI50 was 18.3 µM in [7], 4.6 µM in experiment [8], 6.39 µM in experiment [9] and 5.89 µM in experiment [10]. Also, the TGI is 7.52 µM in experiment [1]; 5.19 µM in experiment [2]; 7.34 µM in [3]; 8.35 µM in experiment [4]; 13.8 µM in experiment [5]; 30.8 µM in experiment [6]. Also, the TGI was > 100 µM in [7], 29.2 µM in [8], 51.3 µM in experiment [9] and > 100 µM in experiment [10].

Regarding `CC(C)(CCCCC(C)(C)C1NC(=O)N1)C1NC(=O)N1`, the TGI in experiment [1], in experiment [2], in experiment [3], in experiment [4], in [5] and in [6] was > 10 µM each time. The TGI in experiment [7], in experiment [8], in [9] and in [10] was > 10 µM in each case.

On to `Cc1nn2c(C(=O)N/N=C/c3ccc([N+](=O)[O-])cc3)c(C)nc2s1`, for which the TGI in experiment [1], in experiment [2], in [3], in experiment [4], in experiment [5] and in experiment [6] was > 100 µM each time. Further, the TGI in experiment [7], in [8], in experiment [9] and in experiment [10] was > 100 µM in each case.

Consider `N#Cc1c(Cl)nc2ccccc2c1N=[N+]=[N-]`, for which the TGI in [1] was found to be 28.1 µM; in [2], 22.4 µM; in experiment [3], 2.93 µM; in [4], 3.17 µM; in experiment [5] it was 9.11 µM; in [6], 4.6 µM. In addition, the TGI in experiment [7] came out at 15.2 µM; in experiment [8] it was 7.7 µM; in experiment [9], 17.7 µM; in experiment [10], 17.8 µM.

In the case of `Oc1ccccc1C1=NOC(c2ccc(C(F)(F)F)cc2)C1` (stereo not given), the TGI in [1], in experiment [2], in experiment [3], in [4], in [5] and in experiment [6] was > 50 µM each time. Also, the TGI in experiment [7], in [8], in experiment [9] and in experiment [10] was > 50 µM throughout.

With `CC(C)(C)OC(=O)c1ccc(NCC2=CC(=O)C=CC2=O)cc1`, the TGI in [1] came to 31.6 µM; in experiment [2], 50.5 µM; in experiment [3], 23.6 µM; in experiment [4] it was 4.38 µM; in experiment [5], 29.2 µM; in experiment [6], 12.7 µM. The TGI in [7] came out at 32.5 µM; in [8], 26.9 µM; in experiment [9] it was 25.9 µM; in experiment [10] it was 29.6 µM.

As to `COc1ccc(/C=C/C(=O)CC(=O)/C=C/c2ccc(OC)cc2)cc1`, the TGI in [1] is > 100 µM; in experiment [2], > 100 µM; in experiment [3] it was 80 µM; in experiment [4] it was 70.8 µM; in experiment [5], > 100 µM; in experiment [6], 78.7 µM. In addition, the TGI in experiment [7] was > 100 µM; in [8], 52.7 µM; in experiment [9] it was > 100 µM; in [10], > 100 µM.

In the case of `CCOC(=O)/C=C/[C@H](O)[C@@H](O)/C=C/C(=O)OCC`, the TGI was > 100 µM in experiment [1]; > 100 µM in experiment [2]; 79.4 µM in experiment [3]; 41.5 µM in experiment [4]; 44.3 µM in [5]; > 100 µM in experiment [6]. Moreover, the TGI in experiment [7] is > 100 µM; in experiment [8], 44.8 µM; in experiment [9], > 100 µM; in experiment [10], 47.6 µM.

As to `CO[C@@H]1C[C@H]2N3CC[C@@]2(c2cc4c(cc2C3)OCO4)[C@H]2O[C@@H]12`, the TGI in experiment [1] is > 100 µM; in experiment [2], > 100 µM; in experiment [3] it was > 100 µM; in [4], > 100 µM; in [5], > 100 µM; in experiment [6], 2.88 µM. For the same molecule, the TGI in experiment [7], in experiment [8], in experiment [9] and in experiment [10] was > 100 µM in each case.

On to `NC(=O)C(=O)C(c1ccccc1)S(=O)(=O)Cc1ccccc1` (stereo not given), for which the TGI in experiment [1], in experiment [2], in experiment [3], in [4], in [5] and in [6] was > 100 µM in each case. For the same molecule, the TGI in experiment [7], in experiment [8], in [9] and in experiment [10] was > 100 µM in each case.

With `N#Cc1c(O)c(N=Nc2ccc(Cl)cc2)c(=O)n2c1[nH]c1ccccc12`, the TGI in [1], in experiment [2], in experiment [3], in experiment [4], in [5] and in experiment [6] was > 100 µM throughout. Further, the TGI in experiment [7], in experiment [8], in experiment [9] and in experiment [10] was > 100 µM each time.

As a reminder, the TGI is the concentration giving total growth inhibition. Read a high TGI as less potent growth arrest. Broadly, the GI50 is the concentration that inhibits growth by half.
